Results from ChEMBL document CHEMBL5715260, “Selectivity Literature for EUbOPEN Chemogenomic Library” (2024).

Legend:
[1] = molecular target: T1, Retinoic acid receptor RXR-alpha (Homo sapiens) (UniProt P19793); assay: Selectivity interaction (Reporter gene assay) EUB0000835a RXRA; design: recommended concentration 1 uM; conditions: screened at recom. conc., reference bexarotene 1 uM, Selectivity number of off-targets 1.0, Selectivity number of targets 1.0, Source Knowledge inhouse
T1 sequence (whole entry): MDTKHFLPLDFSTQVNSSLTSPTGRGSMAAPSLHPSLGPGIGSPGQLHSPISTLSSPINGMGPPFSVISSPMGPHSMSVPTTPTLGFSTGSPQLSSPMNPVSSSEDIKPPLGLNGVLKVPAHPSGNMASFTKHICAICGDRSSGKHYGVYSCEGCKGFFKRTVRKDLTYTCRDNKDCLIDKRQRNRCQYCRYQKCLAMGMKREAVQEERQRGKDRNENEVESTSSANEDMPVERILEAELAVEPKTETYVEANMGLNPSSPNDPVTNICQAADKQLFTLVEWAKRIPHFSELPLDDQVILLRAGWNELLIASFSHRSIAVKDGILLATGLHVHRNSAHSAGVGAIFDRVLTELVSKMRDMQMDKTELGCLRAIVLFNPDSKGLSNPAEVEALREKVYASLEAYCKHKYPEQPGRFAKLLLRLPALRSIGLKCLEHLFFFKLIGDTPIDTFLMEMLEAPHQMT

[2] = molecular target: T2, Alpha trans-inducing protein (Human alphaherpesvirus 1) (UniProt A0A5J6DW59); assay: Selectivity interaction (Reporter gene assay) EUB0000835a UL48; design: recommended concentration 1 uM
T2 sequence (A0A5J6DW59 as listed by the source): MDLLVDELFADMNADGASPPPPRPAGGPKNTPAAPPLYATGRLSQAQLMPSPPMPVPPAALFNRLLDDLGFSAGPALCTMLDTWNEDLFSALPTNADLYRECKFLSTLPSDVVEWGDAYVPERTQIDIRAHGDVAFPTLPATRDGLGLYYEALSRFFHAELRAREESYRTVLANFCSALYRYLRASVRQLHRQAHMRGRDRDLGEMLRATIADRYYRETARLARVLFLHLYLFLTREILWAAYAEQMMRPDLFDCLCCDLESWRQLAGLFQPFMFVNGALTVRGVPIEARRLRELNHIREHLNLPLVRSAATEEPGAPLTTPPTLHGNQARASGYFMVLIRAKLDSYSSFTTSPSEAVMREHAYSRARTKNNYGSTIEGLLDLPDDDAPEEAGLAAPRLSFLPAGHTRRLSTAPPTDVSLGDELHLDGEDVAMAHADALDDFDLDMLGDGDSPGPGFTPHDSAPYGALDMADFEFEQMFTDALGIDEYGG

[3] = molecular target: T3, Hepatocyte nuclear factor 4-alpha (Homo sapiens) (UniProt P41235); assay: Selectivity interaction (Reporter gene assay) EUB0000835a HNF4A; design: recommended concentration 1 uM
T3 sequence (whole entry): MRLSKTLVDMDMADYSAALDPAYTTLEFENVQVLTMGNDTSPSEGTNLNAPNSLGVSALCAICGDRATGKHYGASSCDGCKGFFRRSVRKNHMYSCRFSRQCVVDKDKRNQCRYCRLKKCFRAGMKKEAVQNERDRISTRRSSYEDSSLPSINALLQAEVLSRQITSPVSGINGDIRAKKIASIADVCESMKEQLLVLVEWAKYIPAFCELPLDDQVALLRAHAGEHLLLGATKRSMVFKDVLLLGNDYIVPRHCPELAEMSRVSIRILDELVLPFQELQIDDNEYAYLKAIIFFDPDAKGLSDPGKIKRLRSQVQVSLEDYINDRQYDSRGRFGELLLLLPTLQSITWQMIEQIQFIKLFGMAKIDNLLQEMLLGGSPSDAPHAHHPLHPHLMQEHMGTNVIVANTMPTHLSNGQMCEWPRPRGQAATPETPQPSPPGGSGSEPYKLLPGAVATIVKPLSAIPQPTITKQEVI

[4] = molecular target: T4, Nuclear receptor subfamily 2 group C member 1 (Homo sapiens) (UniProt P13056); assay: Selectivity interaction (Reporter gene assay) EUB0000835a NR2C1; design: recommended concentration 1 uM
T4 sequence (whole entry): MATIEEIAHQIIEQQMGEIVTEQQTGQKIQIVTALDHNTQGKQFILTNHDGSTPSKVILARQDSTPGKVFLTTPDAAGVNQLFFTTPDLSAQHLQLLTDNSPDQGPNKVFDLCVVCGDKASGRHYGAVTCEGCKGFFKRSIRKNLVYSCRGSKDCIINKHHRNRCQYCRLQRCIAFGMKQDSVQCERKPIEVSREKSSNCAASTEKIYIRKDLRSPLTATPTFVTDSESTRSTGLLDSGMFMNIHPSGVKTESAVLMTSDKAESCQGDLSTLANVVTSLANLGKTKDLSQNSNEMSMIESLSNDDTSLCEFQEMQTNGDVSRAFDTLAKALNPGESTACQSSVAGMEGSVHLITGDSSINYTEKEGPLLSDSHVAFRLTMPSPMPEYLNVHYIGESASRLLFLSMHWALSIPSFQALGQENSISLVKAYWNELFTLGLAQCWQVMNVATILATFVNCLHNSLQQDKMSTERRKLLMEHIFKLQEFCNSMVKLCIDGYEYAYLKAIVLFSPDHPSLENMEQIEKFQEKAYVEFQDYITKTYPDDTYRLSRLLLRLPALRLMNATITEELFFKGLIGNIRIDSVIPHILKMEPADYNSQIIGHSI

[5] = molecular target: Nuclear receptor subfamily 2 group E member 1 (Homo sapiens) (UniProt Q9Y466); assay: Selectivity interaction (Reporter gene assay) EUB0000835a NR2E1; design: recommended concentration 1 uM
Nuclear receptor subfamily 2 group E member 1 (Homo sapiens), sequence (Q9Y466 whole entry): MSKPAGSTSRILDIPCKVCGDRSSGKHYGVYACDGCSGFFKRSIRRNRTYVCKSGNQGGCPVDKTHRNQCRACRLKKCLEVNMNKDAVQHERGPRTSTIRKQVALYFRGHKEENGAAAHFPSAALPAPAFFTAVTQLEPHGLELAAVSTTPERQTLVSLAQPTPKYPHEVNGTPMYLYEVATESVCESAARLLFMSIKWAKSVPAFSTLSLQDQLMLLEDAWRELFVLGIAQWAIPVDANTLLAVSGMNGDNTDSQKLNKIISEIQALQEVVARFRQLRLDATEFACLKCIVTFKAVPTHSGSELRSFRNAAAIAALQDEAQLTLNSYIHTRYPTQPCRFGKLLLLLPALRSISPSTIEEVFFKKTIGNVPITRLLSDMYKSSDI

[6] = molecular target: Nuclear receptor subfamily 4immunitygroup A member 1 (Homo sapiens) (UniProt P22736); assay: Selectivity interaction (Reporter gene assay) EUB0000835a NR4A1; design: recommended concentration 1 uM
Nuclear receptor subfamily 4immunitygroup A member 1 (Homo sapiens), sequence (P22736 whole entry): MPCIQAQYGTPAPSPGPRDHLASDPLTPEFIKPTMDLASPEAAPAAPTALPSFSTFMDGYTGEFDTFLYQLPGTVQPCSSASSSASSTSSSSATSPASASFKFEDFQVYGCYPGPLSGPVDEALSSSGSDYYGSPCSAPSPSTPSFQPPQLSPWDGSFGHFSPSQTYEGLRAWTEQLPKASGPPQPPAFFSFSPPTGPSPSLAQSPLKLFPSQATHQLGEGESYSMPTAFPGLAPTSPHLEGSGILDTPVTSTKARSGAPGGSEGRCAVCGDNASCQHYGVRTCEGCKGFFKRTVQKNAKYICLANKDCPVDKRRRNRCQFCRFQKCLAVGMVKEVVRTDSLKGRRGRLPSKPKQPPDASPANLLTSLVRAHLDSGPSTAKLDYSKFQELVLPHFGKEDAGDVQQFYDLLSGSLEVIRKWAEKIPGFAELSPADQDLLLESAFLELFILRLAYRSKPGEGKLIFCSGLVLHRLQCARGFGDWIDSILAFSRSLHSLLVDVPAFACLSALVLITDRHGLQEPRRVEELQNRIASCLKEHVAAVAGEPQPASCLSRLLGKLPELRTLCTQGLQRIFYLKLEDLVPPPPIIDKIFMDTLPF

[7] = molecular target: Steroidogenic factor 1 (Homo sapiens) (UniProt Q13285); assay: Selectivity interaction (Reporter gene assay) EUB0000835a NR5A1; design: recommended concentration 1 uM
Steroidogenic factor 1 (Homo sapiens), sequence (Q13285 whole entry): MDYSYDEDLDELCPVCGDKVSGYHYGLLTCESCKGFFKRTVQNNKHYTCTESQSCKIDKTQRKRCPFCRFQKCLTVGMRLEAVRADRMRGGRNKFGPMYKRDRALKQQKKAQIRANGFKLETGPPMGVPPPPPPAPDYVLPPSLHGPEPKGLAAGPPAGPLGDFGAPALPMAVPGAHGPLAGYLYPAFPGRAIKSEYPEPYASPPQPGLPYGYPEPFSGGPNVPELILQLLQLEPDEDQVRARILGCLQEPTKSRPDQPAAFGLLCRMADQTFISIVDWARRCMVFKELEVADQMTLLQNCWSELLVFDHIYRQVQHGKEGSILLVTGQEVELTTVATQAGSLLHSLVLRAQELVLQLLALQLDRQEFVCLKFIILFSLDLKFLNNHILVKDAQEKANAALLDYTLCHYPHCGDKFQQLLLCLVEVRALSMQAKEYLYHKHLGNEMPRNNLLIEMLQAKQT

[8] = molecular target: T5, Peroxisome proliferator-activated receptor gamma (Homo sapiens) (UniProt P37231); assay: Selectivity interaction (Reporter gene assay) EUB0001141a PPARG; design: recommended concentration 1 uM; conditions: screened at recom. conc., Selectivity number of off-targets 1.0, Selectivity number of targets 19.0, Source Knowledge inhouse
T5 sequence (whole entry): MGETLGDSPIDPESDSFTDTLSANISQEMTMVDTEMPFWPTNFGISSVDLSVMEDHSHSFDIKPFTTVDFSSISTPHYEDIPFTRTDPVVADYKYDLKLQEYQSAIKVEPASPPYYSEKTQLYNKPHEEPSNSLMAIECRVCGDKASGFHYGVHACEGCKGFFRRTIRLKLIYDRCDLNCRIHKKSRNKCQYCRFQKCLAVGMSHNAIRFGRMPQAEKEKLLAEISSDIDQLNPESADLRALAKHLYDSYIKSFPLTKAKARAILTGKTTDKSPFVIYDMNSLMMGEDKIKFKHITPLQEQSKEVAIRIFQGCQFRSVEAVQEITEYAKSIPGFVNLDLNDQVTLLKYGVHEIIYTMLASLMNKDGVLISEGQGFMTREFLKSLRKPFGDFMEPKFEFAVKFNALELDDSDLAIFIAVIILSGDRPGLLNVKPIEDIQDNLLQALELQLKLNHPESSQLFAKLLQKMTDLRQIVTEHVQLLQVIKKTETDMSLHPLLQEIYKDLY

[9] = molecular target: T3, Hepatocyte nuclear factor 4-alpha (Homo sapiens); assay: Selectivity interaction (Reporter gene assay) EUB0001141a HNF4A; design: recommended concentration 1 uM
[10] = molecular target: T4, Nuclear receptor subfamily 2 group C member 1 (Homo sapiens); assay: Selectivity interaction (Reporter gene assay) EUB0001141a NR2C1; design: recommended concentration 1 uM
[11] = molecular target: Nuclear receptor subfamily 2 group E member 1 (Homo sapiens) (UniProt Q9Y466); assay: Selectivity interaction (Reporter gene assay) EUB0001141a NR2E1; design: recommended concentration 1 uM
[12] = molecular target: Nuclear receptor subfamily 4immunitygroup A member 1 (Homo sapiens) (UniProt P22736); assay: Selectivity interaction (Reporter gene assay) EUB0001141a NR4A1; design: recommended concentration 1 uM
[13] = molecular target: Steroidogenic factor 1 (Homo sapiens) (UniProt Q13285); assay: Selectivity interaction (Reporter gene assay) EUB0001141a NR5A1; design: recommended concentration 1 uM
[14] = molecular target: T2, Alpha trans-inducing protein (Human alphaherpesvirus 1); assay: Selectivity interaction (Reporter gene assay) EUB0001141a UL48; design: recommended concentration 1 uM
[15] = molecular target: T1, Retinoic acid receptor RXR-alpha (Homo sapiens); assay: Selectivity interaction (Reporter gene assay) EUB0001141a RXRA; design: recommended concentration 1 uM; conditions: reference bexarotene 1 uM, Selectivity number of off-targets 0.0, Selectivity number of targets 1.0, Source Knowledge inhouse
[16] = molecular target: T3, Hepatocyte nuclear factor 4-alpha (Homo sapiens); assay: Selectivity interaction (Reporter gene assay) EUB0001081a HNF4A; design: recommended concentration 10 uM
[17] = molecular target: T4, Nuclear receptor subfamily 2 group C member 1 (Homo sapiens); assay: Selectivity interaction (Reporter gene assay) EUB0001081a NR2C1; design: recommended concentration 10 uM
[18] = molecular target: Nuclear receptor subfamily 2 group E member 1 (Homo sapiens) (UniProt Q9Y466); assay: Selectivity interaction (Reporter gene assay) EUB0001081a NR2E1; design: recommended concentration 10 uM
[19] = molecular target: Nuclear receptor subfamily 4immunitygroup A member 1 (Homo sapiens) (UniProt P22736); assay: Selectivity interaction (Reporter gene assay) EUB0001081a NR4A1; design: recommended concentration 10 uM
[20] = molecular target: Steroidogenic factor 1 (Homo sapiens) (UniProt Q13285); assay: Selectivity interaction (Reporter gene assay) EUB0001081a NR5A1; design: recommended concentration 10 uM
[21] = molecular target: T2, Alpha trans-inducing protein (Human alphaherpesvirus 1); assay: Selectivity interaction (Reporter gene assay) EUB0001081a UL48; design: recommended concentration 10 uM
[22] = molecular target: T1, Retinoic acid receptor RXR-alpha (Homo sapiens); assay: Selectivity interaction (Reporter gene assay) EUB0001081a RXRA; design: recommended concentration 10 uM; conditions: reference bexarotene 1 uM, Selectivity number of off-targets 0.0, Selectivity number of targets 1.0, Source Knowledge inhouse
[23] = molecular target: T3, Hepatocyte nuclear factor 4-alpha (Homo sapiens); assay: Selectivity interaction (Reporter gene assay) EUB0001143a HNF4A; design: recommended concentration 1 uM
[24] = molecular target: T4, Nuclear receptor subfamily 2 group C member 1 (Homo sapiens); assay: Selectivity interaction (Reporter gene assay) EUB0001143a NR2C1; design: recommended concentration 1 uM
[25] = molecular target: Nuclear receptor subfamily 2 group E member 1 (Homo sapiens) (UniProt Q9Y466); assay: Selectivity interaction (Reporter gene assay) EUB0001143a NR2E1; design: recommended concentration 1 uM
[26] = molecular target: Nuclear receptor subfamily 4immunitygroup A member 1 (Homo sapiens) (UniProt P22736); assay: Selectivity interaction (Reporter gene assay) EUB0001143a NR4A1; design: recommended concentration 1 uM
[27] = molecular target: Steroidogenic factor 1 (Homo sapiens) (UniProt Q13285); assay: Selectivity interaction (Reporter gene assay) EUB0001143a NR5A1; design: recommended concentration 1 uM
[28] = molecular target: T2, Alpha trans-inducing protein (Human alphaherpesvirus 1); assay: Selectivity interaction (Reporter gene assay) EUB0001143a UL48; design: recommended concentration 1 uM
[29] = molecular target: T1, Retinoic acid receptor RXR-alpha (Homo sapiens); assay: Selectivity interaction (Reporter gene assay) EUB0001143a RXRA; design: recommended concentration 1 uM; conditions: reference bexarotene 1 uM, Selectivity number of off-targets 0.0, Selectivity number of targets 1.0, Source Knowledge inhouse
[30] = molecular target: Nuclear receptor ROR-alpha (Homo sapiens) (UniProt P35398); assay: Selectivity interaction (Reporter gene assay) EUB0001136a RORA; design: recommended concentration 1 uM; conditions: screened at recom. conc., Selectivity number of off-targets 3.0, Selectivity number of targets 19.0, Source Knowledge inhouse
Nuclear receptor ROR-alpha (Homo sapiens), sequence (P35398 whole entry): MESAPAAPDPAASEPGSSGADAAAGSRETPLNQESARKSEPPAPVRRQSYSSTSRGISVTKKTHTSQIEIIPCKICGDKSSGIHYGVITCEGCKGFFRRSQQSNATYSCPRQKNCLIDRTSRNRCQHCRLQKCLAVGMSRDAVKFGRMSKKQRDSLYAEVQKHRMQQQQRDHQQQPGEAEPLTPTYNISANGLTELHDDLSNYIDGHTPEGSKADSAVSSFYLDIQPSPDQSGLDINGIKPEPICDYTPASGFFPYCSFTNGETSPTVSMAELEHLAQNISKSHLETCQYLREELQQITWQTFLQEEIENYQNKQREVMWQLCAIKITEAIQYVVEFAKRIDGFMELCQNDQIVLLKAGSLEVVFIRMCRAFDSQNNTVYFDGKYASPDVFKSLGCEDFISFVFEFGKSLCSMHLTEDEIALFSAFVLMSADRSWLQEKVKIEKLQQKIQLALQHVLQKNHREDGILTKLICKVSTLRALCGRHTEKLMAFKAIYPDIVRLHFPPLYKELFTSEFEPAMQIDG

[31] = molecular target: Nuclear receptor ROR-beta (Homo sapiens) (UniProt Q92753); assay: Selectivity interaction (Reporter gene assay) EUB0001136a RORB; design: recommended concentration 1 uM; conditions: screened at recom. conc., Selectivity number of off-targets 3.0, Selectivity number of targets 19.0, Source Knowledge inhouse
Nuclear receptor ROR-beta (Homo sapiens), sequence (Q92753 whole entry): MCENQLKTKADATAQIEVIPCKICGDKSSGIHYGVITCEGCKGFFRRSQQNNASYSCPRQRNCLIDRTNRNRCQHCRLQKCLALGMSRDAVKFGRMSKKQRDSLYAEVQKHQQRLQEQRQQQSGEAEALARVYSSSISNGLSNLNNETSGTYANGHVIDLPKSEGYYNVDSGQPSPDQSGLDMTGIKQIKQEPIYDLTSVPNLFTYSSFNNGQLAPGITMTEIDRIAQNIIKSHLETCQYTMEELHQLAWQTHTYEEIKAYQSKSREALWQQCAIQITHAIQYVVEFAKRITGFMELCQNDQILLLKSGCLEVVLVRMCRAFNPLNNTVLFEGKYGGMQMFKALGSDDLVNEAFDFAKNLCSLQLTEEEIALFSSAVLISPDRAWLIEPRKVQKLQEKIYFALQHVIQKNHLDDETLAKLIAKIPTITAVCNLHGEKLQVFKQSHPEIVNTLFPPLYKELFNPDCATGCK

[32] = molecular target: Nuclear receptor ROR-gamma (Homo sapiens) (UniProt P51449); assay: Selectivity interaction (Reporter gene assay) EUB0001136a RORC; design: recommended concentration 1 uM; conditions: screened at recom. conc., Selectivity number of off-targets 3.0, Selectivity number of targets 19.0, Source Knowledge inhouse
Nuclear receptor ROR-gamma (Homo sapiens), sequence (P51449 whole entry): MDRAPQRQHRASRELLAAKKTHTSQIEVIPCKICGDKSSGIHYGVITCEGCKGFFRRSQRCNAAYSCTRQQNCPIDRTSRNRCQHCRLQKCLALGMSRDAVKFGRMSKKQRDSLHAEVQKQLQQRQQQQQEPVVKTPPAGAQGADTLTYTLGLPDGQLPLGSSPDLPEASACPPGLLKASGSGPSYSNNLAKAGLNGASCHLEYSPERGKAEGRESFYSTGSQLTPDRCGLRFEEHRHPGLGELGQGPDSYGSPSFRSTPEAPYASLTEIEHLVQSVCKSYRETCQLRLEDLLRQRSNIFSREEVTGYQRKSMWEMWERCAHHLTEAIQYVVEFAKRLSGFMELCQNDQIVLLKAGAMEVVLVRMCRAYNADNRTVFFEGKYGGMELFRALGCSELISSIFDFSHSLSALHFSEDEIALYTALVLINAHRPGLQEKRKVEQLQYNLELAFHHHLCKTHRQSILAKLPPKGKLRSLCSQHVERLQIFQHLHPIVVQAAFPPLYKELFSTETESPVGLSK

[33] = molecular target: Nuclear receptor subfamily 2 group E member 1 (Homo sapiens) (UniProt Q9Y466); assay: Selectivity interaction (Reporter gene assay) EUB0001136a NR2E1; design: recommended concentration 1 uM; conditions: screened at recom. conc., Selectivity number of off-targets 2.0, Selectivity number of targets 5.0, Source Knowledge inhouse
[34] = molecular target: Steroidogenic factor 1 (Homo sapiens) (UniProt Q13285); assay: Selectivity interaction (Reporter gene assay) EUB0001136a NR5A1; design: recommended concentration 1 uM; conditions: screened at recom. conc., Selectivity number of off-targets 2.0, Selectivity number of targets 5.0, Source Knowledge inhouse
[35] = molecular target: T2, Alpha trans-inducing protein (Human alphaherpesvirus 1); assay: Selectivity interaction (Reporter gene assay) EUB0001136a UL48; design: recommended concentration 1 uM
[36] = molecular target: T3, Hepatocyte nuclear factor 4-alpha (Homo sapiens); assay: Selectivity interaction (Reporter gene assay) EUB0001136a HNF4A; design: recommended concentration 1 uM
[37] = molecular target: T4, Nuclear receptor subfamily 2 group C member 1 (Homo sapiens); assay: Selectivity interaction (Reporter gene assay) EUB0001136a NR2C1; design: recommended concentration 1 uM
[38] = molecular target: Nuclear receptor subfamily 4immunitygroup A member 1 (Homo sapiens) (UniProt P22736); assay: Selectivity interaction (Reporter gene assay) EUB0001136a NR4A1; design: recommended concentration 1 uM

C[C@H]1[C@H]2CC[C@H]3[C@@H]4CC=C5C[C@@H](N(C)C)CC[C@]5(C)[C@H]4CC[C@]23CN1C
Relative activation [1]: 19.4% | P-value [2]: 0.00302 | Fold activation [3]: 1.09 | Remaining activity [4]: 0.83 | Remaining activity [5]: 0.746 | Remaining activity [6]: 0.964 | Remaining activity [7]: 0.758

Cc1nc(-c2ccc(C(F)(F)F)cc2)sc1C(=O)NCc1ccc(OC(C)(C)C(=O)O)cc1
Fold activation [8]: 2.82 | Remaining activity [9]: 0.924 | Remaining activity [10]: 0.982 | Fold activation [11]: 0.997 | Remaining activity [12]: 0.875 | Fold activation [13]: 1.12 | P-value [14]: 7.52e-07 | Relative activation [15]: 0.895%

CC(C)c1cc(Oc2c(Cl)cc(-n3nc(C#N)c(=O)[nH]c3=O)cc2Cl)n[nH]c1=O
Remaining activity [16]: 0.559 | Remaining activity [17]: 0.569 | Remaining activity [18]: 0.788 | Remaining activity [19]: 0.741 | Remaining activity [20]: 0.559 | P-value [21]: 0.0087 | Relative activation [22]: 1.67%

COc1cc2c(cc1CC=C(C)C)C(=O)C[C@@H](c1ccc(O)cc1)O2
Remaining activity [23]: 0.853 | Remaining activity [24]: 0.85 | Remaining activity [25]: 0.683 | Remaining activity [26]: 0.758 | Remaining activity [27]: 0.857 | P-value [28]: 3.16e-05 | Relative activation [29]: 0.529%

CC(C=CC1=C(C)CCCC1(C)C)=CC=CC(C)=CC(=O)O
Remaining activity [30]: 0.56 | Remaining activity [31]: 0.531 | Remaining activity [32]: 0.461 | Remaining activity [33]: 0.42 | Remaining activity [34]: 0.42 | P-value [35]: 0.000127 | Remaining activity [36]: 0.532 | Remaining activity [37]: 0.503 | Remaining activity [38]: 0.986
